Assay results as given in ChEMBL document CHEMBL1139109, “Further studies on the binding of N1-substituted tryptamines at h5-HT6 receptors” (Bioorg Med Chem Lett, 2007).

Target: 5-hydroxytryptamine receptor 6 (Homo sapiens, UniProt P50406)
Assay: Displacement of [3H] LSD from human 5HT6 receptor expressed in HEK293 cells
Format: cell-based

5-hydroxytryptamine receptor 6, sequence (P50406 whole entry): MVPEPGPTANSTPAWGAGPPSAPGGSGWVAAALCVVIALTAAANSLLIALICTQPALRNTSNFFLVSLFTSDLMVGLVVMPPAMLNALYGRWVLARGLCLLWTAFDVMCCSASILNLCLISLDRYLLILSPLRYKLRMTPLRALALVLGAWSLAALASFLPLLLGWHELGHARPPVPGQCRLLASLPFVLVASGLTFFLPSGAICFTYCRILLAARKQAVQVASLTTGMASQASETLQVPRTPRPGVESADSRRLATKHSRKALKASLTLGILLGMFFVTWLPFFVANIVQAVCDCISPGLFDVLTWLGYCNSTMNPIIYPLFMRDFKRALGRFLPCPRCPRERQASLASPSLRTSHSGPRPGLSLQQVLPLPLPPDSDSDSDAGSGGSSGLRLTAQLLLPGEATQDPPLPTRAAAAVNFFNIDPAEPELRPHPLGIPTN

SMILES | Ki
Cc1ccc(Cn2cc(CCN(C)C)c3ccccc32)cc1 | 29 nM
Nc1ccc(Cn2ccc3ccccc32)cc1 | 8200 nM
CN(C)CC1CCCc2c1c1ccccc1n2Cc1ccccc1 (stereo not given) | 136 nM
CCCS(=O)(=O)n1cc(CCN(C)C)c2ccccc21 | 280 nM
CCCCS(=O)(=O)n1cc(CCN(C)C)c2ccccc21 | 135 nM
CC(C)S(=O)(=O)n1cc(CCN(C)C)c2ccccc21 | 590 nM
CN(C)CCc1cn(S(=O)(=O)c2ccc(Cl)cc2)c2ccccc12 | 94 nM
CN(C)CCc1cn(Cc2ccc(N)cc2)c2ccccc12 | 44 nM
COc1ccc(Cn2cc(CCN(C)C)c3ccccc32)cc1 | 132 nM
CN(C)CCc1cn(S(=O)(=O)C2CCCCC2)c2ccccc12 | 210 nM
CN(C)CCc1cn(Cc2ccc(C(F)(F)F)cc2)c2ccccc12 | 445 nM
CCCCCS(=O)(=O)n1cc(CCN(C)C)c2ccccc21 | 220 nM
Nc1ccc(S(=O)(=O)n2c3c(c4ccccc42)CCCC3)cc1 | 29 nM
CN(C)CCc1cn(S(=O)(=O)c2ccc(C(F)(F)F)cc2)c2ccccc12 | 1.9 nM
Cc1ccc(S(=O)(=O)n2cc(CCN(C)C)c3ccccc32)cc1 | 2.5 nM
Nc1ccc(Cn2c3c(c4ccccc42)CCCC3)cc1 | 6000 nM
CCCCCCCCS(=O)(=O)n1cc(CCN(C)C)c2ccccc21 | 440 nM
CN(C)CC1CCCc2c1c1ccccc1n2S(=O)(=O)c1ccccc1 (stereo not given) | 1.5 nM
CN(C)CCc1cn(Cc2ccc(Cl)cc2)c2ccccc12 | 20 nM
COc1ccc(S(=O)(=O)n2cc(CCN(C)C)c3ccccc32)cc1 | 13 nM
